Values after ≈ are worked out from the molar mass of the structure shown. Active and inactive are the calls of the source. The rule behind the calls is not given here.
Tests used:
Format in all cases: functional, organism-based
Ceratobasidium cereale [1] = assay: Antifungal activity against Ceratobasidium cereale wheat field isolate assessed as mycelial growth inhibition at 25 degC measured after 3 days; conditions: 72 h
Ceratobasidium cereale [2] = assay: Antifungal activity against Ceratobasidium cereale two generation induced iprodione-resistant wheat field isolate HN100R assessed as mycelial growth inhibition in potato dextrose agar media at 25 degC measured after 3 days; conditions: 72 h
Ceratobasidium cereale [3] = assay: Antifungal activity against Ceratobasidium cereale two generation induced iprodione-resistant wheat field isolate HQ12R assessed as mycelial growth inhibition in potato dextrose agar media at 25 degC measured after 3 days; conditions: 72 h
Ceratobasidium cereale [4] = assay: Antifungal activity against Ceratobasidium cereale iprodione-sensitive wheat field isolate HQ12 assessed as mycelial growth inhibition in potato dextrose agar media at 25 degC measured after 3 days; conditions: isolate HQ12, 72 h
Ceratobasidium cereale [5] = assay: Antifungal activity against Ceratobasidium cereale iprodione-sensitive wheat field isolate HN49 assessed as mycelial growth inhibition in potato dextrose agar media at 25 degC measured after 3 days; conditions: isolate HN49, 72 h
Ceratobasidium cereale [6] = assay: Antifungal activity against Ceratobasidium cereale two generation induced iprodione-resistant wheat field isolate HQ3R assessed as mycelial growth inhibition in potato dextrose agar media at 25 degC measured after 3 days; conditions: 72 h
Ceratobasidium cereale [7] = assay: Antifungal activity against Ceratobasidium cereale two generation induced iprodione-resistant wheat field isolate HD10R assessed as mycelial growth inhibition in potato dextrose agar media at 25 degC measured after 3 days; conditions: 72 h
Ceratobasidium cereale [8] = assay: Antifungal activity against Ceratobasidium cereale iprodione-sensitive wheat field isolate HL64 assessed as mycelial growth inhibition in potato dextrose agar media at 25 degC measured after 3 days; conditions: isolate HL64, 72 h
Ceratobasidium cereale [9] = assay: Antifungal activity against Ceratobasidium cereale iprodione-sensitive wheat field isolate HQ3 assessed as mycelial growth inhibition in potato dextrose agar media at 25 degC measured after 3 days; conditions: isolate HQ3, 72 h
Ceratobasidium cereale [10] = assay: Antifungal activity against Ceratobasidium cereale two generation induced iprodione-resistant wheat field isolate HQ31R assessed as mycelial growth inhibition in potato dextrose agar media at 25 degC measured after 3 days; conditions: 72 h
Ceratobasidium cereale [11] = assay: Antifungal activity against Ceratobasidium cereale two generation induced iprodione-resistant wheat field isolate HN49R assessed as mycelial growth inhibition in potato dextrose agar media at 25 degC measured after 3 days; conditions: 72 h
Ceratobasidium cereale [12] = assay: Antifungal activity against Ceratobasidium cereale two generation induced iprodione-resistant wheat field isolate HL64R assessed as mycelial growth inhibition in potato dextrose agar media at 25 degC measured after 3 days; conditions: 72 h
Ceratobasidium cereale [13] = assay: Antifungal activity against Ceratobasidium cereale iprodione-sensitive wheat field isolate HD10 assessed as mycelial growth inhibition in potato dextrose agar media at 25 degC measured after 3 days; conditions: isolate HD10, 72 h
Ceratobasidium cereale [14] = assay: Antifungal activity against Ceratobasidium cereale iprodione-sensitive wheat field isolate HN100 assessed as mycelial growth inhibition in potato dextrose agar media at 25 degC measured after 3 days; conditions: isolate HN100, 72 h
Ceratobasidium cereale [15] = assay: Antifungal activity against Ceratobasidium cereale iprodione-sensitive wheat field isolate HQ31 assessed as mycelial growth inhibition in potato dextrose agar media at 25 degC measured after 3 days; conditions: isolate HQ31, 72 h
Ceratobasidium cereale [16] = assay: Antifungal activity against Ceratobasidium cereale wheat field isolate assessed as mycelial growth inhibition at 10 ug/mL in potato dextrose agar media 25 degC measured after 5 days

Structure (SMILES) | EC50 (Ceratobasidium cereale [1]) [µg/mL] | EC50 (Ceratobasidium cereale [2]) [µg/mL] | EC50 (Ceratobasidium cereale [3]) [µg/mL] | EC50 (Ceratobasidium cereale [4]) [µg/mL] | EC50 (Ceratobasidium cereale [5]) [µg/mL] | EC50 (Ceratobasidium cereale [6]) [µg/mL] | EC50 (Ceratobasidium cereale [7]) [µg/mL] | EC50 (Ceratobasidium cereale [8]) [µg/mL] | EC50 (Ceratobasidium cereale [9]) [µg/mL] | EC50 (Ceratobasidium cereale [10]) [µg/mL] | EC50 (Ceratobasidium cereale [11]) [µg/mL] | EC50 (Ceratobasidium cereale [12]) [µg/mL] | EC50 (Ceratobasidium cereale [13]) [µg/mL] | EC50 (Ceratobasidium cereale [14]) [µg/mL] | EC50 (Ceratobasidium cereale [15]) [µg/mL] | Activity (Ceratobasidium cereale [16])
N#Cc1c[nH]cc1-c1cccc2c1OC(F)(F)O2 [FLUDIOXONIL] | 0.033 (≈ 0.133 µM) | > 100 | > 100 | 0.032 (≈ 0.129 µM) | 0.026 (≈ 0.105 µM) | > 100 | > 100 | 0.022 (≈ 0.0886 µM) | 0.015 (≈ 0.0604 µM) | > 100 | > 100 | > 100 | 0.05 (≈ 0.201 µM) | 0.024 (≈ 0.0967 µM) | 0.026 (≈ 0.105 µM) | –
CC1COC(Cn2cncn2)(c2ccc(Oc3ccc(Cl)cc3)cc2Cl)O1 (stereo unspecified) [DIFENOCONAZOLE] | 0.062 (≈ 0.153 µM) | 0.01 (≈ 0.0246 µM) | 0.092 (≈ 0.226 µM) | 0.082 (≈ 0.202 µM) | 0.07 (≈ 0.172 µM) | 0.034 (≈ 0.0837 µM) | 0.07 (≈ 0.172 µM) | 0.032 (≈ 0.0788 µM) | 0.04 (≈ 0.0985 µM) | 0.06 (≈ 0.148 µM) | 0.074 (≈ 0.182 µM) | 0.057 (≈ 0.14 µM) | 0.066 (≈ 0.162 µM) | 0.095 (≈ 0.234 µM) | 0.037 (≈ 0.0911 µM) | –
CC(C)NC(=O)N1CC(=O)N(c2cc(Cl)cc(Cl)c2)C1=O [IPRODIONE] | 0.419 (≈ 1.27 µM) | > 100 | > 100 | 0.725 (≈ 2.2 µM) | 0.481 (≈ 1.46 µM) | > 100 | > 100 | 0.372 (≈ 1.13 µM) | 0.357 (≈ 1.08 µM) | > 100 | > 100 | > 100 | 0.46 (≈ 1.39 µM) | 0.249 (≈ 0.754 µM) | 0.35 (≈ 1.06 µM) | Active

From ChEMBL document CHEMBL3045321, “Sensitivity to iprodione, difenoconazole and fludioxonil of Rhizoctonia cerealis isolates collected from wheat in China” (Crop Prot, 2011)
